Data reported in patent US20230102554A1 (GB002, INC., priority 2019, published 2023).

Legend:
[1] = molecular target: T1, Human PDGFRβ, cytoplasmic domain (GST-PDGFRβ) (Homo sapiens, UniProt P09619); test: Human PDGFRβ biochemical inhibition assay (off-chip Mobility Shift Assay)
T1 construct: made in house
Outline: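 GST-tagged cytoplasmic domain (aa 557-1106) from baculovirus was incubated 1 h at room temperature with compound, CSKtide, ATP at Km and Mg²⁺ in HEPES buffer, pH 7.5. Phosphorylated and unphosphorylated peptide were separated by off-chip mobility shift, and the product ratio P/(P+S) gave percent inhibition.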

[2] = molecular target: T2, Human PDGFRα, cytoplasmic domain (GST-PDGFRα) (Homo sapiens, UniProt P16234); test: Human PDGFRα biochemical inhibition assay (off-chip Mobility Shift Assay)
T2 construct: made in house
T2 sequence (P16234 550-1089 T674I): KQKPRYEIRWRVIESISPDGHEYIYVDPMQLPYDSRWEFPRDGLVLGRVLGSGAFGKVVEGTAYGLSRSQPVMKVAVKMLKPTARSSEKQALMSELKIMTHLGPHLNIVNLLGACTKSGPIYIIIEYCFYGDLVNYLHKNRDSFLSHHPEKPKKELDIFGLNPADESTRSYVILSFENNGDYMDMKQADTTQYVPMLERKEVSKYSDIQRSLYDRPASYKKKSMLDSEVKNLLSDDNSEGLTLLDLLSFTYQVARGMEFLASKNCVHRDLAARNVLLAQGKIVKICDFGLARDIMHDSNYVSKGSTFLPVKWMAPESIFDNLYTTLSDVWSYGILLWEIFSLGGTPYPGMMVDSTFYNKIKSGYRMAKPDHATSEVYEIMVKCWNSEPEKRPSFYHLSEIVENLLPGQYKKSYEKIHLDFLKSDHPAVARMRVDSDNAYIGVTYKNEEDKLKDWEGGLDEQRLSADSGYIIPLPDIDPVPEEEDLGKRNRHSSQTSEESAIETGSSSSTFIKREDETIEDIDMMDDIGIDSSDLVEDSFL

T1 sequence (P09619 with tags, fused parts or gaps): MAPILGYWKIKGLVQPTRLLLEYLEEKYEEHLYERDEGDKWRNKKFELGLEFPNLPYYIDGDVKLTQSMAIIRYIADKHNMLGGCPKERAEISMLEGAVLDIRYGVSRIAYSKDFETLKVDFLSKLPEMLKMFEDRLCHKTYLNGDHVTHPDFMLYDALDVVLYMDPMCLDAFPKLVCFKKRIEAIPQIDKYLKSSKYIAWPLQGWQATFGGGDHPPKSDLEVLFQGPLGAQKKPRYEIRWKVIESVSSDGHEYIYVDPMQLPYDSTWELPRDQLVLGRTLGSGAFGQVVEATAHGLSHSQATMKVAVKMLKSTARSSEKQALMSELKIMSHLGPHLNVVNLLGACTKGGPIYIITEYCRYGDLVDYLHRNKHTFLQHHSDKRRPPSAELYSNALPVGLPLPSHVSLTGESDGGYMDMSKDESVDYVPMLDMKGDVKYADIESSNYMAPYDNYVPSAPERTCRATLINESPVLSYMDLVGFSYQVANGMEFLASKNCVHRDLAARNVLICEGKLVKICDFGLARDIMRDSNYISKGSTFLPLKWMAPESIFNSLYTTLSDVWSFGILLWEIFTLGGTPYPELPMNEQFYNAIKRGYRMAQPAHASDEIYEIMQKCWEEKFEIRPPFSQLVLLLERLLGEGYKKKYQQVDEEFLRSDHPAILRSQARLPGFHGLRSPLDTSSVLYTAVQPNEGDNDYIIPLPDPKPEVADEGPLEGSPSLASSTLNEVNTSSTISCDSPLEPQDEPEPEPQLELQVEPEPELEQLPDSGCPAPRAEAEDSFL

SMILES | IC50 [1] | IC50 [2]
CCn1cc2ncc(N[C@@H](C)c3cccc(NC(=O)c4ccc(C(F)(F)F)c(OC)c4)c3)nc2n1 [Compound 440, (S)-N-(3-(1-((2-ethyl-2H-pyrazolo[3,4-b]pyrazin-6-yl)amino)ethyl)phenyl)-3-methoxy-4-(trifluoromethyl) benzamide] | < 0.3 µM | < 0.3 µM
CCn1cc2ncc(N[C@@H](C)c3cccc(NC(=O)c4ccc(N5CCCC5)c(F)c4)c3)nc2n1 [Compound 441, (S)-N-(3-(1-((2-ethyl-2H-pyrazolo[3,4-b]pyrazin-6-yl)amino)ethyl)phenyl)-3-fluoro-4-(pyrrolidin-1-yl)benzamide] | < 0.3 µM | < 0.3 µM
CCn1cc2ncc(N[C@@H](C)c3cccc(NC(=O)c4ccc5c(c4)OC(F)(F)O5)c3)nc2n1 [Compound 442, (S)-N-(3-(1-((2-ethyl-2H-pyrazolo[3,4-b]pyrazin-6-yl)amino)ethyl)phenyl)-2,2-difluorobenzo[d][1,3]dioxole-5-carboxamide] | < 0.3 µM | < 0.3 µM
CCn1cc2ncc(N[C@@H](C)c3cc(NC(=O)c4ccc(CN5CCCC5)c(C(F)(F)F)c4)ccc3F)nc2n1 [Compound 443, (S)-N-(3-(1-((2-ethyl-2H-pyrazolo[3,4-b]pyrazin-6-yl)amino)ethyl)-4-fluorophenyl)-4-(pyrrolidin-1-ylmethyl)-3-(trifluoromethyl)benzamide] | < 0.3 µM | < 0.3 µM
CCn1cc2ncc(N[C@@H](C)c3cc(NC(=O)c4ccc(CN5CCN(C)CC5)c(C(F)(F)F)c4)ccc3F)nc2n1 [Compound 444, (S)-N-(3-(1-((2-ethyl-2H-pyrazolo[3,4-b]pyrazin-6-yl)amino)ethyl)-4-fluorophenyl)-4-((4-methylpiperazin-1-yl)methyl)-3-(trifluoromethyl) benzamide] | < 0.3 µM | < 0.3 µM
CCn1cc2ncc(N[C@@H](C)c3cc(NC(=O)c4cnc(N5CCN(C)CC5)c(C(F)(F)F)c4)ccc3F)nc2n1 [Compound 445, (S)-N-(3-(1-((2-ethyl-2H-pyrazolo[3,4-b]pyrazin-6-yl)amino)ethyl)-4-fluorophenyl)-6-(4-methylpiperazin-1-yl)-5-(trifluoromethyl)nicotinamide] | < 0.3 µM | < 0.3 µM
CCn1cc2ncc(N[C@@H](C)c3cc(NC(=O)c4ccc(CN5CCOCC5)c(C)c4)ccc3F)nc2n1 [Compound 446, (S)-N-(3-(1-((2-ethyl-2H-pyrazolo[3,4-b]pyrazin-6-yl)amino)ethyl)-4-fluorophenyl)-3-methyl-4-(morpholinomethyl) benzamide] | < 0.3 µM | < 0.3 µM
CCn1cc2ncc(N[C@@H](C)c3cc(NC(=O)c4ccc(OC5CCN(C)CC5)c(C)c4)ccc3F)nc2n1 [Compound 447, (S)-N-(3-(1-((2-ethyl-2H-pyrazolo[3,4-b]pyrazin-6-yl)amino)ethyl)-4-fluorophenyl)-3-methyl-4-((1-methylpiperidin-4-yl)oxy)benzamide] | < 0.3 µM | < 0.3 µM
CCn1cc2ncc(N[C@@H](C)c3cccc(NC(=O)c4ccc5c(c4)CN(C)C5)c3)nc2n1 [Compound 449, (S)-N-(3-(1-((2-ethyl-2H-pyrazolo[3,4-b]pyrazin-6-yl)amino)ethyl)phenyl)-2-methylisoindoline-5-carboxamide] | ≥ 1 µM | 0.3 to 1 µM
CCn1cc2ncc(N[C@@H](C)c3cccc(NC(=O)c4ccc(OC(F)F)c(Cl)c4)c3)nc2n1 [Compound 450, (S)-3-chloro-4-(difluoromethoxy)-N-(3-(1-((2-ethyl-2H-pyrazolo[3,4-b]pyrazin-6-yl)amino)ethyl)phenyl)benzamide] | < 0.3 µM | < 0.3 µM
CCn1cc2ncc(N[C@@H](C)c3cccc(NC(=O)Cc4ccccc4F)c3)nc2n1 [Compound 451, (S)-N-(3-(1-((2-ethyl-2H-pyrazolo[3,4-b]pyrazin-6-yl)amino)ethyl)phenyl)-2-(2-fluorophenyl)acetamide] | 0.3 to 1 µM | < 0.3 µM
CCn1cc2ncc(N[C@@H](C)c3cccc(NC(=O)c4ccc(OC(F)(F)F)c(C)c4)c3)nc2n1 [Compound 452, (S)-N-(3-(1-((2-ethyl-2H-pyrazolo[3,4-b]pyrazin-6-yl)amino)ethyl)phenyl)-3-methyl-4-(trifluoromethoxy)benzamide] | < 0.3 µM | < 0.3 µM
CCn1cc2ncc(N[C@@H](C)c3cccc(NC(=O)c4ccc(C(F)(F)F)cc4)c3)nc2n1 [Compound 453, (S)-N-(3-(1-((2-ethyl-2H-pyrazolo[3,4-b]pyrazin-6-yl)amino)ethyl)phenyl)-4-(trifluoromethyl)benzamide] | < 0.3 µM | < 0.3 µM
CCn1cc2ncc(N[C@@H](C)c3cccc(NC(=O)Cc4cccc(F)c4F)c3)nc2n1 [Compound 454, (S)-2-(2,3-difluorophenyl)-N-(3-(1-((2-ethyl-2H-pyrazolo[3,4-b]pyrazin-6-yl)amino)ethyl)phenyl)acetamide] | 0.3 to 1 µM | < 0.3 µM
CCn1cc2ncc(N[C@@H](C)c3cc(NC(=O)c4ccc(C(F)(F)F)nc4)ccc3C)nc2n1 [Compound 455, (S)-N-(3-(1-((2-ethyl-2H-pyrazolo[3,4-b]pyrazin-6-yl)amino)ethyl)-4-methylphenyl)-6-(trifluoromethyl)nicotinamide] | < 0.3 µM | < 0.3 µM
CCn1cc2ncc(N[C@@H](C)c3cc(NC(=O)c4cnc(N5CCN(C)CC5)c(Cl)c4)ccc3F)nc2n1 [Compound 456, (S)-5-chloro-N-(3-(1-((2-ethyl-2H-pyrazolo[3,4-b]pyrazin-6-yl)amino)ethyl)-4-fluorophenyl)-6-(4-methylpiperazin-1-yl) nicotinamide] | < 0.3 µM | < 0.3 µM
CCn1cc2ncc(N[C@@H](C)c3cc(NC(=O)c4ccc(CN5CCN(C)CC5)c(C)c4)ccc3F)nc2n1 [Compound 457, (S)-N-(3-(1-((2-ethyl-2H-pvrazolo[3,4-b]pyrazin-6-yl)amino)ethyl)-4-fluorophenyl)-3 methyl-4-((4-methylpiperazin-1-yl)methyl)benzamide] | < 0.3 µM | < 0.3 µM
CCn1cc2ncc(N[C@@H](C)c3cc(NC(=O)c4ccc(C(F)(F)F)nc4)ccc3Cl)nc2n1 [Compound 458, (S)-N-(4-chloro-3-(1-((2-ethyl-2H-pyrazolo[3,4-b]pyrazin-6-yl)amino)ethyl)phenyl)-6-(trifluoromethyl)nicotinamide] | < 0.3 µM | < 0.3 µM
CCn1cc2ncc(N[C@@H](C)c3cc(NC(=O)c4ccc(C(F)(F)F)nc4)ccc3C(F)(F)F)nc2n1 [Compound 459, (S)-N-(3-(1-((2-ethyl-2H-pyrazolo[3,4-b]pyrazin-6-yl)amino)ethyl)-4-(trifluoromethyl)phenyl)-6-(trifluoromethyl) nicotinamide] | ≥ 1 µM | ≥ 1 µM
CCn1cc2ncc(N[C@@H](C)c3cccc(NC(=O)c4ccc(CN5CCC6(COC6)C5)c(C)c4)c3)nc2n1 [Compound 460, (S)-4-((2-oxa-6-azaspiro[3.4]octan-6-yl)methyl)-N-(3-(1-((2-ethyl-2H-pyrazolo[3,4-b]pyrazin-6-yl)amino)ethyl)phenyl)-3-methylbenzamide] | < 0.3 µM | < 0.3 µM
CCn1cc2ncc(N[C@@H](C)c3cccc(NC(=O)c4ccc(CN5CC6(C5)CC6(F)F)c(C)c4)c3)nc2n1 [Compound 461] | 0.3 to 1 µM | < 0.3 µM
CCn1cc2ncc(N[C@@H](C)c3cccc(NC(=O)c4ccc(CN5CCN(C6CC6)CC5)c(C)c4)c3)nc2n1 [Compound 462, (S)-4-((4-cyclopropylpiperazin-1-yl)methyl)-N-(3-(1-((2-ethyl-2H-pyrazolo[3,4-b]pyrazin-6-yl)amino)ethyl)phenyl)-3-methylbenzamide] | < 0.3 µM | < 0.3 µM
Cc1cncc(C(=O)Nc2cccc([C@H](C)Nc3cnc4cn(-c5cccnc5)nc4n3)c2)c1 [Compound 463, (S)-5-methyl-N-(3-(1-((2-(pyridin-3-yl)-2H-pyrazolo[3,4-b]pyrazin-6-yl)amino)ethyl)phenyl)nicotinamide] | < 0.3 µM | < 0.3 µM
CCn1cc2ncc(N[C@@H](C)c3cccc(NC(=O)c4ccc(CN5CC[C@@H](F)C5)c(Cl)c4)c3)nc2n1 [Compound 464, 3-chloro-N-(3-((S)-1-((2-ethyl-2H-pyrazolo[3,4-b]pyrazin-6-yl)amino)ethyl)phenyl)-4-(((R)-3-fluoropyrrolidin-1-yl)methyl) benzamide] | < 0.3 µM | < 0.3 µM
CCn1cc2ncc(N[C@@H](C)c3cccc(NC(=O)c4ccc(C(=O)N5CC[C@@H](N)C5)c(C)c4)c3)nc2n1 [Compound 465, 4-((R)-3-aminopyrrolidine-1-carbonyl)-N-(3-((S)-1-((2-ethyl-2H-pyrazolo[3,4-b]pyrazin-6-yl)amino)ethyl)phenyl)-3-methylbenzamide] | ≥ 1 µM | < 0.3 µM
CCn1cc2ncc(N[C@@H](C)c3cccc(NC(=O)c4ccc(C(=O)N5CCN(C)CC5)c(Cl)c4)c3)nc2n1 [Compound 466, (S)-3-chloro-N-(3-(1-((2-ethyl-2H-pyrazolo[3,4-b]pyrazin-6-yl)amino)ethyl)phenyl)-4-(4-methylpiperazine-1-carbonyl) benzamide] | 0.3 to 1 µM | < 0.3 µM
CCn1cc2ncc(N[C@@H](C)c3cccc(NC(=O)c4ccc(C(=O)N5CC[C@@H](N)C5)c(Cl)c4)c3)nc2n1 [Compound 467, 4-((R)-3-aminopyrrolidine-1-carbonyl)-3-chloro-N-(3-((5)-1-((2-ethyl-2H-pyrazolo[3,4-b]pyrazin-6-yl)amino)ethyl)phenyl)benzamide] | ≥ 1 µM | < 0.3 µM
CCn1cc2ncc(N[C@@H](C)c3cccc(NC(=O)c4ccc(CN5CC6(COC6)C5)c(F)c4)c3)nc2n1 [Compound 468, (S)-4-((2-oxa-6-azaspiro[3.3]heptan-6-yl)methyl)-N-(3-(1-((2-ethyl-2H-pyrazolo[3,4-b]pyrazin-6-yl)amino)ethyl)phenyl)-3-fluorobenzamide] | ≥ 1 µM | 0.3 to 1 µM
